From ChEMBL document CHEMBL5465560, “Selectivity Literature for EUbOPEN Chemogenomic Library” (2024)

Columns and labels:
[1] = target: Mitogen-activated protein kinase kinase kinase kinase 1 (Homo sapiens) (UniProt Q92918); assay: Selectivity interaction (KinomeScan (DiscoverX)) EUB0000092b MAP4K1; conditions: at 10 µM
[2] = target: Serine/threonine-protein kinase pim-3 (Homo sapiens) (UniProt Q86V86); assay: Selectivity interaction (KinomeScan (DiscoverX)) EUB0000655a PIM3; conditions: at 10 µM
[3] = target: Tyrosine-protein kinase JAK1 (Homo sapiens, UniProt P23458); assay: Selectivity interaction (ActivX KiNativ screen (kinase selectivity in THP-1 cell lysates)) EUB0000639a JAK1; assay type: subcellular; conditions: lysate, at 5 µM
Tyrosine-protein kinase JAK1, sequence (P23458 whole entry, canonical isoform): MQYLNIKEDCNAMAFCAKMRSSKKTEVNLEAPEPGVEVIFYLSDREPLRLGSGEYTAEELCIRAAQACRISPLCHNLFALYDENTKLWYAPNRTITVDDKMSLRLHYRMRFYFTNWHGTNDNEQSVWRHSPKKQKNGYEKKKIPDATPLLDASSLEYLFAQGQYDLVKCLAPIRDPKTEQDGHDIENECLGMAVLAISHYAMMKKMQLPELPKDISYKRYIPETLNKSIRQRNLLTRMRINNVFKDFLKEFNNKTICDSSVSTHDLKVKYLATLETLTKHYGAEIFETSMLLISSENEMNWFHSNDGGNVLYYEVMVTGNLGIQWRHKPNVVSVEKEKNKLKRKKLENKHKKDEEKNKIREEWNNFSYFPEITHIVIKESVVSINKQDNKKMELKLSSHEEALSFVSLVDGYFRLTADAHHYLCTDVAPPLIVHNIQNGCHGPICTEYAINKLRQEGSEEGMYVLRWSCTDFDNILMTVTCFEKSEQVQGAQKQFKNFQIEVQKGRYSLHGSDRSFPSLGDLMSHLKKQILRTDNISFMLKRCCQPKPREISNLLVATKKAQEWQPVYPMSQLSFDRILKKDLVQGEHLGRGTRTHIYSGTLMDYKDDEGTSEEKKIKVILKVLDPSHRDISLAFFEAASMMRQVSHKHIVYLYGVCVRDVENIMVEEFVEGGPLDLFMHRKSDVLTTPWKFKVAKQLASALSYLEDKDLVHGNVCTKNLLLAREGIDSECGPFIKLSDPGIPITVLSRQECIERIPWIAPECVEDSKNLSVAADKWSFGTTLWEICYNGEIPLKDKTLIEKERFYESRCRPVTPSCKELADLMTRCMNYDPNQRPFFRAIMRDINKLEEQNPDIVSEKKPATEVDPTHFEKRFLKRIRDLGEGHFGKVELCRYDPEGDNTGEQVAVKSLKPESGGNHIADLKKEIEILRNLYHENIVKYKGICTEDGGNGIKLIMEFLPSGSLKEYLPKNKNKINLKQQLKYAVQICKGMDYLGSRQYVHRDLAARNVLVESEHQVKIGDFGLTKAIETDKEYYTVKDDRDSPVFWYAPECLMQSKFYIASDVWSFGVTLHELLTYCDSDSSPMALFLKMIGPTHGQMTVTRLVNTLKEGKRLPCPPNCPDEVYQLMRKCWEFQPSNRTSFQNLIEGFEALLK

[4] = test system: Phosphatidylinositol 4,5-bisphosphate 3-kinase catalytic subunit alpha isoform (Homo sapiens), P42336 [E545K]; assay: (§1) Selectivity interaction (KinomeScan (DiscoverX)) EUB0000695a PIK3CA; conditions: at 100 nM
Phosphatidylinositol 4,5-bisphosphate 3-kinase catalytic subunit alpha isoform (Homo sapiens), P42336 [E545K], sequence (P42336 whole entry E545K, canonical isoform): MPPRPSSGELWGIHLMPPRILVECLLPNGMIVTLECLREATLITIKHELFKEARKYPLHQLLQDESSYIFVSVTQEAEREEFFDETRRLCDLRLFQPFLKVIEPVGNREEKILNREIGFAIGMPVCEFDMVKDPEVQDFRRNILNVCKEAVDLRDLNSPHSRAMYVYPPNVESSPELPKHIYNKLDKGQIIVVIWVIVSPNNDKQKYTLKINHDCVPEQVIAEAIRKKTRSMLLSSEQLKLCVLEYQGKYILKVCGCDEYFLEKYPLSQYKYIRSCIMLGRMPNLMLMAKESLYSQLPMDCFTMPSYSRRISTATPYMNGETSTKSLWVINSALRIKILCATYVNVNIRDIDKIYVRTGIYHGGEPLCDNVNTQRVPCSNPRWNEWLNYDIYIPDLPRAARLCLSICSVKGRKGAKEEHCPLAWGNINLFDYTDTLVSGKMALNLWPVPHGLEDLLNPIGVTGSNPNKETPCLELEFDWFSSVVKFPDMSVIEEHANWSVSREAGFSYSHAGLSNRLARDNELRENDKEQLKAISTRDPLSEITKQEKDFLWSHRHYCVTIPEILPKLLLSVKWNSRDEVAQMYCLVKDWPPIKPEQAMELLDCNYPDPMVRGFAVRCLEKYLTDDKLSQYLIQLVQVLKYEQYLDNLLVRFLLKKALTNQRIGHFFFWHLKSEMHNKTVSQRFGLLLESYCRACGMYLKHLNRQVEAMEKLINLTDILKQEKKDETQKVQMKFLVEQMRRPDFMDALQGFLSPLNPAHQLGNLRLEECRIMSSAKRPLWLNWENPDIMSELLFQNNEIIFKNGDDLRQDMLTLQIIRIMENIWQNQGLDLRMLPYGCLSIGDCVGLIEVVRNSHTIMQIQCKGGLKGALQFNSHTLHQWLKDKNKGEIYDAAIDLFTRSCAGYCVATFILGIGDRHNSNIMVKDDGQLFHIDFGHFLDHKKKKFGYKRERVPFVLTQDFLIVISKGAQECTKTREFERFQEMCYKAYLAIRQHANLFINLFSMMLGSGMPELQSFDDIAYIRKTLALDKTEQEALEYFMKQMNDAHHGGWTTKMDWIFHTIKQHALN

[5] = test system: Phosphatidylinositol 4,5-bisphosphate 3-kinase catalytic subunit alpha isoform (Homo sapiens), P42336 [H1047Y]; assay: as §1; conditions: at 100 nM
Phosphatidylinositol 4,5-bisphosphate 3-kinase catalytic subunit alpha isoform (Homo sapiens), P42336 [H1047Y], sequence (P42336 whole entry H1047Y, canonical isoform): as the sequence (P42336 whole entry E545K, canonical isoform) above, with K545E, H1047Y counted along it

[6] = test system: Phosphatidylinositol 4,5-bisphosphate 3-kinase catalytic subunit alpha isoform (Homo sapiens), P42336 [E545A]; assay: as §1; conditions: at 100 nM
Phosphatidylinositol 4,5-bisphosphate 3-kinase catalytic subunit alpha isoform (Homo sapiens), P42336 [E545A], sequence (P42336 whole entry E545A, canonical isoform): as the sequence (P42336 whole entry E545K, canonical isoform) above, with K545A counted along it

[7] = test system: Phosphatidylinositol 4,5-bisphosphate 3-kinase catalytic subunit alpha isoform (Homo sapiens), P42336 [I800L]; assay: as §1; conditions: at 100 nM
Phosphatidylinositol 4,5-bisphosphate 3-kinase catalytic subunit alpha isoform (Homo sapiens), P42336 [I800L], sequence (P42336 whole entry I800L, canonical isoform): as the sequence (P42336 whole entry E545K, canonical isoform) above, with K545E, I800L counted along it

[8] = test system: Phosphatidylinositol 4,5-bisphosphate 3-kinase catalytic subunit alpha isoform (Homo sapiens), P42336 [C420R]; assay: as §1; conditions: at 100 nM
Phosphatidylinositol 4,5-bisphosphate 3-kinase catalytic subunit alpha isoform (Homo sapiens), P42336 [C420R], sequence (P42336 whole entry C420R, canonical isoform): as the sequence (P42336 whole entry E545K, canonical isoform) above, with C420R, K545E counted along it

[9] = target: T1, Tyrosine-protein kinase JAK3 (Homo sapiens) (UniProt P52333); assay: Selectivity interaction (KinomeScan (DiscoverX)) EUB0000045b JAK3
T1 sequence (whole entry): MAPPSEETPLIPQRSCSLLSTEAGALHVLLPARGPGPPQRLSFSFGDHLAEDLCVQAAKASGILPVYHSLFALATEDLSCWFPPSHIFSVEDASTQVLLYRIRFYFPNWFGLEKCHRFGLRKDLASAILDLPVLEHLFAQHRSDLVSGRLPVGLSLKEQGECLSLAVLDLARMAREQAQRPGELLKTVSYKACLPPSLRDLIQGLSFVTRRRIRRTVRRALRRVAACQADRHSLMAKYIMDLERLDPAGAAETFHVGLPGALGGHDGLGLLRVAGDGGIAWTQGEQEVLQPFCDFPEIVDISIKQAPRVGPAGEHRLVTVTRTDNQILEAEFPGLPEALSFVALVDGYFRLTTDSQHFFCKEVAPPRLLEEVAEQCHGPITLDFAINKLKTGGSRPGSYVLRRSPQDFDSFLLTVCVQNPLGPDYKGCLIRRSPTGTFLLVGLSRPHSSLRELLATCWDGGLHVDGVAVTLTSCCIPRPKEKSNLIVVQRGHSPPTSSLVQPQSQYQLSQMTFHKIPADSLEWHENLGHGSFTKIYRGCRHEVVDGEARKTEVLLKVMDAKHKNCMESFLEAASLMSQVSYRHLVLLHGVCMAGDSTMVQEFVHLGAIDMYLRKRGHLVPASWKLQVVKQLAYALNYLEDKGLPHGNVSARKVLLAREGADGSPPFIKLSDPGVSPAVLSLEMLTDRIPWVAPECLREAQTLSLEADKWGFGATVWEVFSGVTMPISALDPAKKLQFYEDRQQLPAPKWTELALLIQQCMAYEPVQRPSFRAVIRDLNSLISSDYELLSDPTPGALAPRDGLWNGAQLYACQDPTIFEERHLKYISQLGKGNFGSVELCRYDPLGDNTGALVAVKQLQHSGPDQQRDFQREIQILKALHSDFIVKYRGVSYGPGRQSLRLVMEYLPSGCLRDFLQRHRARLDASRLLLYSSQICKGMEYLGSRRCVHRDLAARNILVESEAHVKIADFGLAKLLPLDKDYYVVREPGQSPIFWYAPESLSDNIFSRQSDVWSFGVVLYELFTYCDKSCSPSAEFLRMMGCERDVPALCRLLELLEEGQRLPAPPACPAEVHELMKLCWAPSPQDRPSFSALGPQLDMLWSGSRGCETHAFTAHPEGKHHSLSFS

[10] = target: T2, Mitogen-activated protein kinase kinase kinase 5 (Homo sapiens) (UniProt Q99683); assay: Selectivity interaction (KinomeScan (DiscoverX)) EUB0001619a MAP3K5; conditions: at 1 µM
T2 sequence (whole entry): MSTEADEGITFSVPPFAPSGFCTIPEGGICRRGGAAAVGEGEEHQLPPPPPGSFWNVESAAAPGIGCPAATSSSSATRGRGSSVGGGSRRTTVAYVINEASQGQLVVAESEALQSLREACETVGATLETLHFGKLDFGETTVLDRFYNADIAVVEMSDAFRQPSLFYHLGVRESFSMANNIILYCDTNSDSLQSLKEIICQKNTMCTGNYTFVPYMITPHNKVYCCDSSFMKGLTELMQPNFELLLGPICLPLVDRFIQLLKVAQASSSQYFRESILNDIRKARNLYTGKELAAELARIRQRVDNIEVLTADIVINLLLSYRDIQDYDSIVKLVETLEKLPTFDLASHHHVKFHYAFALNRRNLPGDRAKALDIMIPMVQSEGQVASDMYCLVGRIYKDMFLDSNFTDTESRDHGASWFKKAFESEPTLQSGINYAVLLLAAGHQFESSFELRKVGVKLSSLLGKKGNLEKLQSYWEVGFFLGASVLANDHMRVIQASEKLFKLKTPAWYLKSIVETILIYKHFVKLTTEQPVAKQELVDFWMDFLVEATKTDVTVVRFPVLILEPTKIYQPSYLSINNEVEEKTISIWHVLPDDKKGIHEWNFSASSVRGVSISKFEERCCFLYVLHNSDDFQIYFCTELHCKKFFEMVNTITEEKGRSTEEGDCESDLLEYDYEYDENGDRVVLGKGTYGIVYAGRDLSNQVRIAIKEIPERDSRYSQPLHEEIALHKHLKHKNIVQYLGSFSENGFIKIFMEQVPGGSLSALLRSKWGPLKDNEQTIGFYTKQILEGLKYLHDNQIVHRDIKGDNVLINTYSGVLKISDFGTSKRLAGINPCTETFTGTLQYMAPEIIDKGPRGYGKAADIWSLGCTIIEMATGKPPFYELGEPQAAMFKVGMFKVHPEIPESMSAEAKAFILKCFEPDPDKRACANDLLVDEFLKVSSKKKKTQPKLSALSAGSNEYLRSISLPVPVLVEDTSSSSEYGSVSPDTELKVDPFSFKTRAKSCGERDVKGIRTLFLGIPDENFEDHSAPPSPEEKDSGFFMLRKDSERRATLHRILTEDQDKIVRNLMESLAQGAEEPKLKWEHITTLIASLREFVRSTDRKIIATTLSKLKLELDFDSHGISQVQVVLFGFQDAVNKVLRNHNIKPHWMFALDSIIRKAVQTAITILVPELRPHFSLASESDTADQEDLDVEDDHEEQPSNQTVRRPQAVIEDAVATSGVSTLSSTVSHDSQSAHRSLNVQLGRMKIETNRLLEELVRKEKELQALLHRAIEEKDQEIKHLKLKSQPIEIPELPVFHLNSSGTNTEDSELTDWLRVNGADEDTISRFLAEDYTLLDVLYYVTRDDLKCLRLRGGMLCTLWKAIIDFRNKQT

Mitogen-activated protein kinase kinase kinase kinase 1 (Homo sapiens), sequence (Q92918 whole entry, looked up): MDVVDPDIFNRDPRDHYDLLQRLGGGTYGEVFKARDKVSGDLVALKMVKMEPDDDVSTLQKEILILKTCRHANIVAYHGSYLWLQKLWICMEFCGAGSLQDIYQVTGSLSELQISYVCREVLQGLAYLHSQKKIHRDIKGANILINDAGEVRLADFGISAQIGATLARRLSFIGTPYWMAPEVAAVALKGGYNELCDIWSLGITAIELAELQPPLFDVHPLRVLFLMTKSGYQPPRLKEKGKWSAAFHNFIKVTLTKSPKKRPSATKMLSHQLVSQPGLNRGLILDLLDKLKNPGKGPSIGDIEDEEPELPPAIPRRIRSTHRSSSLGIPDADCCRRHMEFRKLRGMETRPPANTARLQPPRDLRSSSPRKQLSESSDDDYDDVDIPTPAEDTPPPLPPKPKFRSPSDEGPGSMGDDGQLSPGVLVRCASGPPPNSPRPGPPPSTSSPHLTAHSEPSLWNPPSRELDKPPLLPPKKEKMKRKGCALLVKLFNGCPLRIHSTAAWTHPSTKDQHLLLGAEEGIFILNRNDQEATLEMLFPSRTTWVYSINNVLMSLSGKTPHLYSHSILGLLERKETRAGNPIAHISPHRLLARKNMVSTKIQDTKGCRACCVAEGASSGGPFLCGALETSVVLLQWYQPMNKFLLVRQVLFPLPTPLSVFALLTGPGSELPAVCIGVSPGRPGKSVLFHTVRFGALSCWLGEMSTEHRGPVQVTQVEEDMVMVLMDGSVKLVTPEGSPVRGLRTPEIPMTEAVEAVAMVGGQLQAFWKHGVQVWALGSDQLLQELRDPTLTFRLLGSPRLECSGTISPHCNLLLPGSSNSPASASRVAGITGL

CCC(=O)N1CCN(c2ccc(-n3c(=O)ccc4cnc5ccc(-c6cnc7ccccc7c6)cc5c43)cc2C(F)(F)F)CC1
% of control [1]: 30%

CN(C)CCOc1ccc(-c2nc(-c3ccncc3)c(-c3ccc4c(c3)CC/C4=N\O)[nH]2)cc1
% of control [2]: 88%

CC[C@@H]1[C@H](F)C(=O)N[C@@H]1COc1nccc2cc(C(N)=O)c(OC)cc12 [ZIMLOVISERTIB]
% of inhibition [3]: -35.3%

Cc1cc(F)c(C(=O)Nc2cccc(-c3nncn3C(C)C)n2)cc1-n1cnc(C2CC2)c1
% of control [4]: 99%
% of control [5]: 100%
% of control [6]: 100%
% of control [7]: 89%
% of control [8]: 100%

C=CC(=O)Nc1cc(-n2c(=O)ccc3cnc4ccc(-c5ccc(NS(C)(=O)=O)cc5)cc4c32)ccc1C
% of control ([9]; at 1 µM): 6.6%
% of control ([9]; at 10 µM): 0.6%

N#Cc1cccc(-c2c[nH]c3ncnc(N4CCOCC4)c23)c1
% of control [10]: 26%
